What follows are compounds tested against T1, Phospholipase A2, membrane associated (Homo sapiens, UniProt P14555) (assay: Inhibition of sPLA2-2A in HEK293 cell).
T1 sequence (P14555 whole entry): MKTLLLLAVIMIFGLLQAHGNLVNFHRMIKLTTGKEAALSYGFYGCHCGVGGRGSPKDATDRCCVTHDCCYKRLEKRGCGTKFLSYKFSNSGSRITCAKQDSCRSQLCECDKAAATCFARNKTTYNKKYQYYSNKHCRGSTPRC
Assay type: cell-based

`O=c1cc(-c2ccc(-c3c(-c4ccccc4)oc4ccccc4c3=O)cc2)oc2ccccc12` and `O=c1cc(-c2ccc(-c3cccc(-c4cc(=O)c5ccccc5o4)c3)cc2)oc2ccccc12` are within 1.5-fold of each other in IC50: 23.2 µM for the first, 15.5 µM for the second.

First: O=c1cc(-c2ccc(-c3ccc(-c4cc(=O)c5ccccc5o4)cc3)cc2)oc2ccccc12
Second: O=c1cc(-c2ccc(-c3ccc4oc(-c5ccccc5)cc(=O)c4c3)cc2)oc2ccccc12
The IC50 of the first is 21-fold lower: 3 µM for the first, 63.9 µM for the second.

First: O=c1cc(-c2cccc(-c3ccc4oc(-c5ccccc5)cc(=O)c4c3)c2)oc2ccccc12
Second: O=c1cc(-c2ccccc2)oc2ccc(-c3ccc4oc(-c5ccccc5)cc(=O)c4c3)cc12
The IC50 of the first is 3.5-fold lower: 19.9 µM for the first, 69.3 µM for the second.

First: O=c1cc(-c2ccc(O)c(-c3c(O)cc(O)c4c(=O)cc(-c5ccc(O)cc5)oc34)c2)oc2cc(O)cc(O)c12 [AMENTOFLAVONE]
Second: O=c1cc(-c2ccc(Oc3cc(-c4cc(=O)c5c(O)cc(O)cc5o4)ccc3O)cc2)oc2cc(O)cc(O)c12 [OCHNAFLAVONE]
The IC50 of the first is 6.8-fold higher: 23.8 µM for the first, 3.5 µM for the second. The second is the more potent here.

Source: ChEMBL document CHEMBL1146997, “Synthesis of phospholipase A2 inhibitory biflavonoids” (Bioorg Med Chem Lett, 2006)
